# Experimental data taken from PMC12391994, “Synthesis of a fac-Tricarbonylrhenium(I) Complex with Pyrithione, Its Physicochemical Characterization, and Assessment of Biological Effects” (ACS Omega, 2025).
# Like-named read-outs stand apart in the source and are kept apart here.
# Experiments:
# [1] = tested on: S. aureus MRSA ATCC 43300; test: Antibacterial MIC assay, S. aureus MRSA ATCC 43300; type: cell-based, Staphylococcus aureus; details: 18 h, visual inspection
# Method: The antibacterial effect of the complex was tested against the Gram-negative strain Escherichia coli (E. coli) ATCC 25922, the Gram-positive reference strain Staphylococcus aureus (S. aureus) ATCC 25923, and the methicillin-resistant S. aureus MRSA ATCC 43300 strain. MRSA strains are responsible for several difficult-to-treat hospital-acquired infections.
# The following bacterial strains were used in our experiments: Gram-positive S. aureus American Type Culture Collection (ATCC) 25923 as the methicillin-susceptible reference bacterial strain; methicillin-resistant S. aureus ATCC 43300 (MRSA) strain; E. coli ATCC 25922 as a Gram-negative bacterial strain.
# MIC values of the complexes were determined in 96-well plates based on the Clinical and Laboratory Standard Institute guidelines (CLSI guidelines). The stock solutions of the compound (dissolved in DMSO at 5 mM concentration) were diluted in 100 μL of Mueller Hinton Broth. Then, 10^–4 dilution of an overnight bacterial culture in 100 μL of medium was added to each well, with the exception of the medium control wells.
# cathepsin V = target: T1, cathepsin V (Homo sapiens, UniProt O60911); test: Relative inhibition of cathepsin V; type: biochemical; details: 50 μM; substrate Z-Phe-Arg-AMC; pH 5.5
# T1 construct: made in house; host or cells: Pichia pastoris
# From the text: Relative inhibition is expressed as a percentage of the decrease in reaction velocity in the presence of an inhibitor, in comparison to the reaction velocity in the absence of an inhibitor. For that purpose, the specific fluorogenic substrates Z-Arg-Arg-7-amido-4-methylcoumarin (Z-Arg-Arg-AMC) and 2-aminobenzoyl (Abz)-Gly-Ile-Val-Arg-Ala-Lys-(Dnp)-OH were used for cathepsin B endopeptidase and exopeptidase activities, respectively, and Z-Phe-Arg-AMC was used for cathepsin L and V activities.
# Human recombinant cathepsin B was expressed in E. coli, recombinant cathepsin V was expressed in Pichia pastoris, and human recombinant cathepsin L was expressed in E. coli, as reported. − For the determination of cathepsin B endopeptidase and exopeptidase activities, 100 mM phosphate buffer (pH 6.0) and 60 mM acetate buffer (pH 5.0) were used, respectively, and for the determination of cathepsin V and L activities, 100 mM acetate buffer (pH 5.5) was used. All buffers contained 0.1% PEG 8000 (Sigma-Aldrich, St. Louis, MO), 5 mM cysteine, and 1.5 mM EDTA. Prior to the assay, the enzymes were activated in the assay buffer for 5 min at 37 °C.
# To determine the effect of inhibitors on enzyme activity, the following substrates were used: Z-Arg-Arg-AMC (final concentration 5 μM, Z-RR-AMC; Bachem, Bubendorf, Switzerland) for cathepsin B endopeptidase activity, Abz-Gly-Ile-Val-Arg-Ala-Lys-(Dnp)-OH (final concentration 1 μM, Abz-GIVRAK-(Dnp)-OH; Bachem) for cathepsin B exopeptidase activity, and Z-Phe-Arg-AMC (final concentration 2 μM, Z-FR-AMC; Bachem) for cathepsin V and L activity. The substrate ([…]) at a final concentration and inhibitor ([…]) at a concentration of 50 μM were added to the wells of a black microplate. The reaction was then initiated by adding 90 μL of activated enzyme (final concentrations: 5 nM cathepsin B for its endopeptidase activity, 0.5 nM cathepsin B for its exopeptidase activity, 2.5 ng/mL for cathepsin V, and 0.02 nM for cathepsin L) in the assay buffer. The formation of fluorescent degradation products during the reaction was continuously monitored at 460 ± 10 nm with excitation at 380 ± 20 nm for Z-Arg-Arg-AMC and Z-Phe-Arg-AMC and at 420 ± 10 nm with excitation at 320 ± 20 nm for Abz-Gly-Ile-Val-Arg-Ala-Lys(Dnp)-OH at 37 °C on a Tecan Infinite M1000 (Mannedorf, Switzerland) spectrofluorometer. All assay mixtures contained 5% (v/v) DMSO. To prevent false-positive inhibition due to the formation of compound aggregates, 0.01% Triton X-100 was used. All measurements were performed in triplicate and repeated twice. The relative inhibition was calculated using the following equation: relative inhibition (%) = 100(1 – v i/v o), where v i and v o designate the reaction velocities in the presence and absence of inhibitor, respectively.
# [2] = Stability of complex 4 in DMSO followed by 1H NMR; type: physicochemical
# Method: (§1) A Bruker Avance III HD Ascend 500 Plus instrument (Billerica, MA) was used for solution NMR studies. Spectra were recorded with a WATERGATE water suppression pulse scheme in the presence of 10% (v/v) D2O in most cases. DSS internal standard was added to samples to obtain reference peaks.
# [3] = Stability/transformation in aqueous solution (1H NMR, UV-vis, CZE); type: physicochemical
# Method: as §1
# [4] = 10 mM HEPES pH 7.4, 25.0 °C
# Method: Distribution coefficients (D 7.4) were determined using n-octanol/buffered aqueous solution (10 mM HEPES, pH = 7.4) partitioning (Table ).
# The traditional shake-flask method was used to obtain the distribution coefficient of the complex in n-octanol/buffered aqueous solution (10 mM HEPES, pH = 7.4) using UV–vis spectrophotometry. The measurements and data evaluation were performed as in our previous work.
# [5] = pH-dependent UV-vis spectrophotometry (solution speciation, pKa of aqua ligand); type: physicochemical; details: between pH 3 and 8, no spectral changes
# From the text: However, at pH > ∼8, the spectrum changes considerably (Figure ).
# The isosbestic point indicates a single equilibrium process, which is most likely deprotonation of the coordinated aqua ligand in complex 4a. This process was studied in our previous work for similar fac-[Re(CO)3] complexes formed with (N,N)-bearing ligands, and the calculated pK a (H2O) is around 8. […] Similar pK a values in the presence and absence of the chloride ions indicate a low chloride affinity of the aqua complex. Based on these values, the fraction of [Re(CO)3(pth)(H2O)] is 100% at pH = 7.4. The analogous half-sandwich complex [Ru(cym)(pth)(H2O)]^+ was also characterized by high solution stability, and a similarly high pK a value (10.34 (0.2 M KCl)).
# For the solution studies, an Agilent Cary 3500 spectrophotometer was utilized to obtain UV–vis spectra in the wavelength range of 200–1100 nm. The path length ( l ) was 1 cm in all cases. The concentrations of the complex were between 10 and 60 μM. For investigation of the effect of chloride ions, the samples contained 60 μM complex and 0–7300 equiv of Cl^–. For HSA-containing samples, complex concentrations were 60 μM, and 0.5 equiv of biomolecule (or 6 equiv of MIM) was added for kinetic studies, respectively. Individual samples contained 0–34 μM HSA. The computer program HypSpec was used to obtain equilibrium constants.
# T1 sequence (O60911 114-334): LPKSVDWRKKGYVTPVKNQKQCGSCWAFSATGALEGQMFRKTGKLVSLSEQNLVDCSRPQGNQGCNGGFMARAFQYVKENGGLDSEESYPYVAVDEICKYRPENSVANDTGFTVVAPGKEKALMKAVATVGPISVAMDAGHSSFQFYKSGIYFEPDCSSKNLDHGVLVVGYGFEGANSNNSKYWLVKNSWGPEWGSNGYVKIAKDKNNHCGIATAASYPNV
compound,measurement,setting,value
"N#Cc1ccccc1.[C-]#[O+].[C-]#[O+].[C-]#[O+].[O-]n1ccccc1=S.[Re+] [complex 4, fac-[Re(CO)3(pth)(benzonitrile)]]",MIC S. aureus MRSA ATCC 43300,[1],12.5 µM
same,relative inhibition cathepsin V,cathepsin V,9.1 ± 1.0%
same,bidentate pyrithione ligand coordination to rhenium(I),"[2]; 48 h monitoring period, light-exclusion",remained coordinated
same,time for complete replacement of benzonitrile with a solvent molecule,"[2]; light-exclusion conditions, 1H NMR",≤ 1 h
same,time for complete release of the benzonitrile ligand,"[3]; water pH 6.8 and pH 7.4 (phosphate or HEPES buffer), kept in the dark, 1H NMR",≤ 1 h
same,dissociation of the pyrithione ligand,"[3]; water pH 6.8 and pH 7.4 buffers, dark, 48 h",did not occur within 48 h
same,log D7.4,[4]; c(Cl–) 0 mM,+1.61 ± 0.18
same,log D7.4,[4]; c(Cl–) 4 mM,+1.67 ± 0.14
same,log D7.4,[4]; c(Cl–) 24 mM,+1.71 ± 0.13
same,log D7.4,[4]; c(Cl–) 100 mM,+1.71 ± 0.14
same,integrity of the complex (aqua form) from UV-vis spectra,[5],remains intact
